Source: publication PMC4841536, “Characterization of the Anti-HCV Activities of the New Cyclophilin Inhibitor STG-175” (PLoS ONE, 2016)
Where two headings read alike, the source gives them in different places.

Legend:
[1] = system: HBV AD38 in NTCP-Huh7 cells; assay: Mono-infection, HBV HBeAg ELISA; assay type: cell-based, hepatitis B virus; conditions: 0.5 and 5 μM, added together with virus, 12 days
Excerpt: For mono-infections: a) human hepatoma Huh7.5.1 cells were infected with HCV (JFH-1) and viral replication was quantified by HCV core ELISA (Ortho HCV antigen ELISA kit; Ortho Clinical Diagnostics, Waco Chemicals, Inc. or HCV Core ELISA, XpressBio); b) sodium-taurocholate co-transporting polypeptide (NTCP)-positive Huh7 cells were infected with hepatitis B virus (HBV) AD38 (produced from HepAD38 cells) and viral replication was quantified by HBV HBeAg ELISA; and c) human (peripheral blood monocytic cells (PBMCs) were infected with HIV-1 (JR-CSF) and viral replication was quantified by HIV-1 capsid/p24 ELISA. PBMCs were isolated as described previously. The Scripps Research Institute Normal Blood Donor Service (TSRI NBDS) provides TSRI investigators who have Human Subjects Committee-approved protocols with a source of normal blood for their research. Donors are assured of a controlled clinical setting for their blood to be drawn by licensed phlebotomists, and investigators are assured that the donors whose specimens they obtain through the service have been screened upon entry into the program and annually thereafter for a CBC, Hepatitis B and C and HIV-1. Hemoglobin determinations at every donation protect the donor from phlebotomy-induced anemia. […]

[2] = system: HCV GT3a subgenomic replicon S52/SG-Feo (AI); assay: Luciferase reporter replicon antiviral assay, GT3a; assay type: cell-based; conditions: Hepatitis C virus
Procedure: (§1) The anti-HCV activity of STG-175 was conducted using a panel of luciferase reporter replicon cell lines including GT1a, GT1b, GT2a, GT3a and GT4a as we described previously. The GT1a subgenomic renilla luciferase reporter replicon H77 RLucP (7) was supplied by Dr. Delaney. The GT1b subgenomic firefly luciferase reporter replicon pFK-I389/NS3-3’ [29] was supplied by Dr. Bartenschlager. The GT1B subgenomic NS3, NS5A and NS5B mutants were created via homologous recombination using the In-Fusion HD Cloning kit (Clontech) as we described previously. The GT2a genomic luciferase reporter replicon Luc-Neo-JFH-1 was generated as previously. The plasmid pFK-Luc-JFH1 was supplied from Drs. […] The CellTiter-Fluor™ Cell Viability Assay is a non-lytic fluorescence assay, which measures the number of live cells. […] Luciferase activity was determined using the Luciferase Assay System (Promega) in a Berthold luminometer. […] Viable cells continuously convert resazurin to resorufin, increasing the overall fluorescence and color of the media surrounding cells.
(§2) Fig 2 Anti-HCV activities of STG-175 among GTs. […] Luciferase activity was determined using the Luciferase Assay System in a Berthold luminometer. […] Data are expressed as mean of relative light units and calculated EC50s are presented. […]

[3] = system: HCV GT2a genomic replicon Luc-Neo-JFH-1; assay: Luciferase reporter replicon antiviral assay, GT2a; assay type: cell-based; conditions: Hepatitis C virus
Procedure: as §1, §2

[4] = system: HCV GT1a subgenomic replicon H77 RLucP; assay: Luciferase reporter replicon antiviral assay, GT1a; assay type: cell-based; conditions: Hepatitis C virus
Procedure: as §1, §2

[5] = alamarBlue cytotoxicity (CC50), GT1a replicon cell line; conditions: human
Procedure: as §1, §2

Structure (SMILES): CC=CCC(C)C(O)C1C(=O)NC(CC)C(=O)N(C)C(CSCCCCO)C(=O)N(C)C(CC(C)(C)O)C(=O)NC(C(C)C)C(=O)N(C)C(CC(C)C)C(=O)NC(C)C(=O)NC(C)C(=O)N(C)C(CC(C)C)C(=O)N(C)C(CC(C)C)C(=O)N(C)C(C(C)C)C(=O)N1C (centres unmarked) [STG-175]
- HBV infection (HBeAg ELISA) [1]: significantly reduced
- EC50 ([2]; 72 h, read-out: EC50 GT3a): 38.9 nM
- EC50 ([2]; read-out: EC50 GT3a (Fig 2D)): 38.9 nM
- EC50 ([3]; 72 h post-drug addition, luciferase, read-out: EC50 GT2a): 11.5 nM
- EC50 ([3]; Fig 2D table, unit inferred, read-out: EC50 GT2a (Fig 2D)): 11.5 nM
- EC50 ([4]; 72 h post-drug addition, luciferase, read-out: EC50 GT1a): 13.5 nM
- EC50 ([4]; Fig 2D table, unit inferred, read-out: EC50 GT1a (Fig 2D)): 13.5 nM
- CC50 at 72 h [5]: > 10000 nM
